Measured values from patent publication US20250115597A1, “TYK2 INHIBITORS AND COMPOSITIONS AND METHODS THEREOF” (LYNK PHARMACEUTICALS CO. LTD., priority 2021, published 2025).
pIC50: −log10 of the molar value. Where two headings read alike, the source gives them in different places.

Experiments:
[1] = target: T1, Ba/F3-FL-TYK2-P760L cells (Homo sapiens, UniProt P29597, P760L, cells depend on it); assay: Anti-proliferative assay, Ba/F3-FL-TYK2-P760L cells (Cell-Titer Glo); type: cell-based; conditions: 72 h, read-out: BaF3-FL-T2P760L IC50
T1 construct: BaF3-FL-T2P760L (nM)
T1 sequence (P29597 whole entry P760L): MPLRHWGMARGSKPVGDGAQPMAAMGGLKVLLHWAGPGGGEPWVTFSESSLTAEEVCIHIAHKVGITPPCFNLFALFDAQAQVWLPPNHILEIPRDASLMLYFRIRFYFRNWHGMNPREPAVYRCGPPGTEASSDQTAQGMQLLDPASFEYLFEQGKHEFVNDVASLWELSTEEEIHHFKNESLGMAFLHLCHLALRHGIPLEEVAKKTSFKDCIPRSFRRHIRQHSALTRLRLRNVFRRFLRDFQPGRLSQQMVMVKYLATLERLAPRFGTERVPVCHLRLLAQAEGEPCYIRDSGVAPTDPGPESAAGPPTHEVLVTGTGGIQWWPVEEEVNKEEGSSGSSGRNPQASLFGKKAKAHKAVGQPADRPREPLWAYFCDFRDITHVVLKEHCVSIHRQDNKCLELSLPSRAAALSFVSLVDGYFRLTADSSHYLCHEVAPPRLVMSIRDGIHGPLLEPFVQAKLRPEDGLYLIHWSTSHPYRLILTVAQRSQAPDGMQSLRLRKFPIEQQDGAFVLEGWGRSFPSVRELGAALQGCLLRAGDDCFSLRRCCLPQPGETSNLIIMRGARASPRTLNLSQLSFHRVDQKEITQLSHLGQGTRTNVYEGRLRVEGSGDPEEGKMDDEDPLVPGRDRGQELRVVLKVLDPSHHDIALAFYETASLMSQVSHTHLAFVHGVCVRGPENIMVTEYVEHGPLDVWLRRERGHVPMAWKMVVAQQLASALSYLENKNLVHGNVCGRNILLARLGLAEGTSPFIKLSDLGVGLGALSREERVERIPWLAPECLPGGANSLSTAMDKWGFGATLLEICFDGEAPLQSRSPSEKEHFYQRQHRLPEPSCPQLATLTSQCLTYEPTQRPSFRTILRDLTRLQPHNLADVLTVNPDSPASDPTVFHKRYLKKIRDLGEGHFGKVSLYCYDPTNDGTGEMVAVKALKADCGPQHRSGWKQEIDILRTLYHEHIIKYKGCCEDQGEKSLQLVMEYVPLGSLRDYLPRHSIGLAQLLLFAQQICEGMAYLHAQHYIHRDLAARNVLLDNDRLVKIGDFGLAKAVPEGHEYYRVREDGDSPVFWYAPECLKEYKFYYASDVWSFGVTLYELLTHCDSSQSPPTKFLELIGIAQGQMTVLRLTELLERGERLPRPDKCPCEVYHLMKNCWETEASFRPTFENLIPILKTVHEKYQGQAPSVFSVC
In short: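 Compound exposure ran 72 h at 37 °C in 5% CO2 across nine 3-fold concentrations from a 20 μM top dose, added 24 h after seeding 2000 cells/well.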

pSTAT1 = assay: Phosphorylation inhibition of STAT in human whole blood, IFN-alpha stimulated (flow cytometry); type: cell-based; conditions: 20 min, read-out: IC50 on pSTAT1 inhibition in h WB
Procedure: Phosphorylation Inhibition of STAT in Human PBMC and Human Whole Blood Testing:
The inhibitory potential of test articles in human PBMC and human whole blood assay was evaluated by the method of flow cytometry.
IFN-alpha will activate JAK1 and TYK2 kinase in T cells by binding to IFN receptors, and then lead to phosphorylation of STAT1 and STAT2. The phosphorylated STAT1 enter nuclear and promote transcription and expression of IFN-gamma. To evaluate the efficacy of TYK2i in T cells, freshly prepared human PBMC or freshly collected human whole blood will be stimulated with certain unit of human IFN-alpha (Universal Type I IFN(1MU), R&D, 11200-2) for 20 mins in incubator. After stimulation, fix cells with Phosflow™ Fix Buffer I (BD, 557870), and then collect fixed cells by centrifugation (500 g, 8 min). Wash cells once with pre-cooled PBS, and then permeabilize cells with cold Perm Buffer III buffer (BD, 558050) for 45 mins on ice. Collect cells by centrifugation (600 g, 8 min) and washed twice with cold PBS. Stain cells with anti-human CD3 (FITC Mouse Anti-Human CD3, BD, 555332) and anti-pSTAT1_Y701(Alexa Fluor 647 Mouse Anti-Stat1 (pY701), BD, 612597) antibodies. Detect pSTAT1 by flow cytometry (CytoFlex S) and analyze data with FlowJo and GraphPad Prism 8 software. IC50 values of test articles were determined using 4-parameter logistic equation.

TYK2-JH2 domain = target: T2, TYK2-JH2 domain (Homo sapiens, UniProt P29597); assay: Binding activity test for JH2 domain of TYK2 (Tb-antibody/tracer FRET); conditions: for JAK1/TYK2 selectivity: ratio JAK1-JH2 IC50 / TYK2-JH2 IC50
T2 construct: IC50 on JH2 domain activity (nM)
T2 sequence (P29597 589-875 limits assumed): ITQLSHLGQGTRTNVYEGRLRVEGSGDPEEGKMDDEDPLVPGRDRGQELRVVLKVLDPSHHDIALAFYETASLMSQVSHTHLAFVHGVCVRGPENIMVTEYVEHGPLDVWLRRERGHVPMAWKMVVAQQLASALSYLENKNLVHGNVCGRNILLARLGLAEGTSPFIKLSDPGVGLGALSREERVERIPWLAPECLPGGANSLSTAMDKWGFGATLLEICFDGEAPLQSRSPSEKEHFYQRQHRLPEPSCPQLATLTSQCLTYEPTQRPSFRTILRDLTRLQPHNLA
In short: (§1)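 FRET read-out after 60 min at 25° C plus overnight at 4° C; tracer displacement detected via Tb-labelled antibody on the JH2 domain. Dose-response used 11 points at 3-fold dilution.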

JAK1-JH2 domain = target: T3, JAK1-JH2 domain (Homo sapiens, UniProt P23458); assay: Binding activity test for JH2 domain of JAK1 (Tb-antibody/tracer FRET)
T3 construct: IC50 on JH2 domain activity (nM)
T3 sequence (P23458 583-855 limits assumed): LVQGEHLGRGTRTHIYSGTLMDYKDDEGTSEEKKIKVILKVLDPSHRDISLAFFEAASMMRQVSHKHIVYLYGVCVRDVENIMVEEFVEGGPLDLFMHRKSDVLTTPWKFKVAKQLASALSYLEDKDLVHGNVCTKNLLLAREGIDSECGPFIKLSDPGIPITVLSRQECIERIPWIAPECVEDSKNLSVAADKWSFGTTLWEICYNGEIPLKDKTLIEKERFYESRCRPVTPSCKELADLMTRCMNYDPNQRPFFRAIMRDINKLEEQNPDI
In short: as §1

[2] = Hepatocytes metabolic stability assay; type: in vitro ADME; conditions: cryopreserved hepatocytes, human hepatocytes, 1.0×10^6 cells/mL; for CLint scaled at 1 μM: read-out: Human hepatocyte Clint(liver); for half-life at 1 μM: read-out: Human hepatocyte stability T1/2
Procedure: Hepatocytes Metabolic Stability Assay
The vials of cryopreserved hepatocytes were removed from the liquid nitrogen container and immediately immersed in a 37° C. water bath for approximately 2 min. The melted ice pellets were transferred into tubes containing 50 mL of pre-warmed thawing medium and mixed well by gently inverting the tubes, and then centrifuged at 500 rpm for 3 minutes at room temperature. The supernatants were discarded, and cell pellets were re-suspended by adding appropriate volumes of pre-warmed incubation medium. The cells viability of each species was determined using Trypan Blue exclusion. Add 50 μL of pre-warmed 2× dosing solution to the wells designated for different time points. Then 50 μL of cells suspension (2×10^6 cells/mL) were added into appropriate wells at corresponding time points of T15, T30, T60, T120. Start timing and put the plate in an incubator at 37° C. For TO sample, add 300 μL of ACN containing internal standard to the wells, mix gently, then add 50 μL of pre-warmed hepatocytes solution (2×10^6 cells/mL). The concentration of test compound was 1 μM and 1.0×10^6 cells/mL in the final incubation. At each corresponding time point, test and control compounds reaction samples were stopped by adding 300 μL acetonitrile containing internal standard. All sample plates were thoroughly mixed and centrifuged at 5000×g for 15 minutes. The supernatants were diluted at ratio of 1:1 with ultra-pure water for test and positive controls. Then submitted for LC-MS/MS analysis.
The analyte/internal standard peak area ratios were converted to percentage remaining with the following equation: […]
The in vitro elimination constant, k of test compounds and control compounds were calculated from a log linear plot of % Remaining versus time, then the half-life (T1/2), the estimation of the in vitro hepatic intrinsic clearance (CLint) values were calculated from substrate disappearance rate in hepatocytes incubation: […]

[3] = Microsomal metabolic stability assay; type: in vitro ADME; conditions: pH 7.4, 0.5 mg/mL protein, 1 μM compound
In short: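 Parent loss was tracked by LC/MS/MS at 0, 5, 15, 30 and 45 min, with half-life derived from the ln(% remaining)–time slope. Incubation at 37 °C, pH 7.4 phosphate/EDTA buffer: 0.5 mg/mL microsomes, 1 μM compound, NADPH-regenerated (2 mM).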

[4] = human whole blood, IFN-alpha 20 mins, CD3 cells
[5] = dog liver microsomes, read-out: Dog LM Clint
[6] = dog liver microsomes, read-out: Dog LM T½
[7] = human liver microsomes, read-out: Human LM Clint
[8] = human liver microsomes, read-out: Human LM T½
[9] = rat liver microsomes, read-out: Rat LM Clint
[10] = rat liver microsomes, read-out: Rat LM T½

Structure (SMILES) | GI50 [1] | pIC50 (pSTAT1; [4]) | pIC50 (TYK2-JH2 domain) | JAK1/TYK2 selectivity (TYK2-JH2 domain) | pIC50 (JAK1-JH2 domain) | CLint scaled at 1 μM [2] | half-life at 1 μM [2] | microsomal CLint at 1 μM [3, 5] | half-life at 1 μM [3, 6] | microsomal CLint at 1 μM [3, 7] | half-life at 1 μM [3, 8] | microsomal CLint at 1 μM [3, 9] | half-life at 1 μM [3, 10] | pIC50 (pSTAT1; Homo sapiens)
[2H]C([2H])([2H])NC(=O)c1nnc(NC(=O)C2CC2)cc1Nc1cn(C)c2ccn(C)c(=O)c12 [Example 224, 6-(Cyclopropanecarboxamido)-4-((1,5-dimethyl-4-oxo-4,5-dihydro-1H-pyrrolo[3,2-c]pyridin-3-yl)amino)-N-(methyl-d3)pyridazine-3-carboxamide] | 0.214 µM | 6.37 | – | – | – | – | – | – | – | – | – | – | – | –
[2H]C([2H])([2H])NC(=O)c1cnc(NC(=O)C2CC2)cc1Nc1ncc2cnn(CC(F)(F)F)c2c1OC [Example 266, 6-(Cyclopropanecarboxamido)-4-((7-methoxy-1-(2,2,2-trifluoroethyl)-1H-pyrazolo[4,3-c]pyridin-6-yl)amino)-N-(methyl-d3)nicotinamide] | 0.0762 µM | 7.03 | 9.54 | 154 | 7.35 | – | – | – | – | – | – | – | – | –
[2H]C([2H])([2H])NC(=O)c1cnc(NC(=O)C2CC2)cc1Nc1nn(CC)c2ccn(CC(F)(F)F)c(=O)c12 [Example 105, 6-(Cyclopropanecarboxamido)-4-((1-ethyl-4-oxo-5-(2,2,2-trifluoroethyl)-4,5-dihydro-1H-pyrazolo[4,3-c]pyridin-3-yl)amino)-N-(methyl-d3)nicotinamide] | 0.146 µM | – | 9.13 | – | – | 8.69 mL/min/kg | 203 min | 10.4 µL/min/mg | 133 min | 5.58 µL/min/mg | 249 min | 45.9 µL/min/mg | 30.2 min | –
[2H]C([2H])([2H])NC(=O)c1cnc(Nc2cc(C)nc(C)n2)cc1Nc1cc(F)c2cnn(CC)c2c1OC [Example 152, 6-((2,6-Dimethylpyrimidin-4-yl)amino)-4-((1-ethyl-4-fluoro-7-methoxy-1H-indazol-6-yl)amino)-N-(methyl-d3)nicotinamide] | 0.0279 µM | 7.11 | 9.77 | 62.6 | 7.97 | – | > 240 min | 478 µL/min/mg | 2.9 min | 42.4 µL/min/mg | 32.7 min | 54.1 µL/min/mg | 25.6 min | –
[2H]C([2H])([2H])NC(=O)c1cnc(NC(=O)C2CC2)cc1Nc1ccn2ncc(CC#N)c2c1OC [Example 239, 4-((3-(Cyanomethyl)-4-methoxypyrazolo[1,5-a]pyridin-5-yl)amino)-6-(cyclopropanecarboxamido)-N-(methyl-d3)nicotinamide] | 0.0847 µM | 6.81 | 9.73 | 28.8 | 8.27 | – | – | – | – | – | – | – | – | –
C=CCn1cc(Nc2cc(NC(=O)C3CC3)ncc2C(=O)NC)c2c(=O)n(CC)ccc21 [Example 246, 4-((1-Allyl-5-ethyl-4-oxo-4,5-dihydro-1H-pyrrolo[3,2-c]pyridin-3-yl)amino)-6-(cyclopropanecarboxamido)-N-methylnicotinamide] | 0.0757 µM | 6.54 | 9.81 | 75.9 | 7.93 | – | – | – | – | – | – | – | – | –
[2H]C([2H])([2H])NC(=O)c1cnc(Nc2ccncn2)cc1Nc1cc(F)c2cnn(CC)c2c1OC [Example 157, 4-((1-Ethyl-4-fluoro-7-methoxy-1H-indazol-6-yl)amino)-N-(methyl-d3)-6-(pyrimidin-4-ylamino)nicotinamide] | 0.0539 µM | – | 9.45 | 70.6 | 7.60 | 13.9 mL/min/kg | 127 min | 42.1 µL/min/mg | 32.9 min | 79.9 µL/min/mg | 17.4 min | 106 µL/min/mg | 13.2 min | –
[2H]C([2H])([2H])NC(=O)c1cnc(NC(=O)[C@@H]2C[C@@H]2F)cc1Nc1ccc2cnn(CC)c2c1OC (relative stereo) [Example 256, 4-((1-Ethyl-7-methoxy-1H-indazol-6-yl)amino)-6-(cis-2-fluorocyclopropanecarboxamido)-N-(methyl-d3)nicotinamide] | 0.0695 µM | 6.59 | 9.58 | 40.8 | 7.97 | – | – | – | – | – | – | – | – | –
[2H]C([2H])([2H])NC(=O)c1cnc(NC(=O)C2CC2)cc1Nc1nn(CC2CC2)c2ccn(CC(F)(F)F)c(=O)c12 [Example 203, 6-(Cyclopropanecarboxamido)-4-((1-(cyclopropylmethyl)-4-oxo-5-(2,2,2-trifluoroethyl)-4,5-dihydro-1H-pyrazolo[4,3-c]pyridin-3-yl)amino)-N-(methyl-d3)nicotinamide] | 0.0466 µM | 6.33 | 9.76 | 106.7 | 7.73 | – | – | – | – | – | – | – | – | –
[2H]C([2H])([2H])NC(=O)c1cnc(NC(=O)C2CC2)cc1Nc1ccn2ncc(Cl)c2c1OC [Example 235, 4-((3-Chloro-4-methoxypyrazolo[1,5-a]pyridin-5-yl)amino)-6-(cyclopropanecarboxamido)-N-(methyl-d3)nicotinamide] | 0.0447 µM | 6.36 | 9.58 | 25.7 | 8.17 | – | – | – | – | – | – | – | – | –
[2H]C([2H])([2H])NC(=O)c1cnc(NC(=O)C2CC2)cc1Nc1cn(C)c2ccn(CCO)c(=O)c12 [Example 113, 6-(Cyclopropanecarboxamido)-4-((5-(2-hydroxyethyl)-1-methyl-4-oxo-4,5-dihydro-1H-pyrrolo[3,2-c]pyridin-3-yl)amino)-N-(methyl-d3)nicotinamide] | 2.39 µM | 6.46 | – | – | – | – | – | – | – | – | – | – | – | –
[2H]C([2H])([2H])NC(=O)c1cnc(NC(=O)C2CC2)cc1Nc1ccc2ccn(CC)c2c1OC [Example 244, 6-(Cyclopropanecarboxamido)-4-((1-ethyl-7-methoxy-1H-indol-6-yl)amino)-N-(methyl-d3)nicotinamide] | 0.0181 µM | – | 9.90 | 36.6 | 8.34 | – | – | – | – | – | – | – | – | 6.72
